Results as given in patent US20120035155A1, “INDOLE-2-CARBOXAMIDE DEIVATIVE” (MSD K.K., priority 2009, published 2012).

Target: T1, human QRFP receptor (GPR103) (Homo sapiens, UniProt Q96P65)
T1 construct: expressed in transfected cells; host or cells: CHO-K1 NFAT β-Lactamase (Aurora); membrane sample
T1 sequence (Q96P65 1-431): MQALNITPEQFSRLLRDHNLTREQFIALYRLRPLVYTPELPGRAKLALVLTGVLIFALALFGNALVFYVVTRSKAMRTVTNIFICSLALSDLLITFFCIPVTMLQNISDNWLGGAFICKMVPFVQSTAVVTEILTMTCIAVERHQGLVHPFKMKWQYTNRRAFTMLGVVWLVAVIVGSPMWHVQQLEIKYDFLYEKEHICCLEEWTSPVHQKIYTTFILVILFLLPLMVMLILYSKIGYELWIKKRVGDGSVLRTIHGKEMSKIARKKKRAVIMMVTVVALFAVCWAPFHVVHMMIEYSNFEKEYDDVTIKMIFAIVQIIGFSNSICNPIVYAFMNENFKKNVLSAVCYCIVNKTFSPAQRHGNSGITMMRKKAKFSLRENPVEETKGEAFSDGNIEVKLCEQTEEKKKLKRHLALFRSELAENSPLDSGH
Test: QRFP43-Binding Inhibitory Test
Details: inhibition of specific [125I] QRFP43 binding; membrane sample of CHO-K1 NFAT β-Lactamase cells expressing GPR103; 25° C., 1 hour
Excerpt: A cDNA sequence [Accession No. NM_198179] coding for a human QRFP receptor (GPR103) was cloned in an expression vector pEF1V5-H isB (by Invitrogen). The resulting expression vector was transfected in a host cell CHO-K1 NFAT β-Lactamase (by Aurora), according to a cationic lipid process [see Proceedings of the National Academy of Sciences of the United States of America, Vol. 84, p. 7413, 1987], thereby producing a QRFP receptor (GPR103).
A membrane sample prepared from the cells having expressed a QRFP receptor (GPR103) was incubated in an assay buffer (50 mM Tris-HCl, 1 mM EDTA and 0.1% BSA, pH 7.4) along with a test compound and 20,000 cpm [^125I] QRFP43 (by Perkin Elmer) therein, at 25° C. for 1 hour, and then filtered through a glass filter GF/C. After washed with 50 mM Tris-HCl (containing 2 mM EDTA, 10 mM MgCl2 and 0.04% Tween-20) buffer (pH 7.4), the radioactivity on the glass filter was determined. The non-specific binding was determined in the presence of 1 μM peptide QRFP43, and the 50% inhibitory concentration (IC50) of the test compound to the specific [^125I] QRFP43 binding was computed [see Endocrinology, Vol. 131, p. 2090, 1992].

SMILES	IC50
CN(C)Cc1ccc2c(c1)CCN(C(=O)c1cc3ccccc3n1C)C2 [Example 4, [6-Dimethylaminomethyl-3,4-dihydro-2(1H)isoquinolin-2-yl](1-methyl-1H-indol-2-yl)methanone]	5.8 nM
CN(C)Cc1ccc2c(c1)CCN(C(=O)c1cc3cc(Cl)ccc3n1C)C2 [Example 7, [6-Dimethylaminomethyl-3,4-dihydro-2(1H)isoquinolin-2-yl](5-chloro-1-methyl-1H-indol-2-yl)methanone]	6.1 nM
Cn1c(C(=O)N2CCc3cc(CN4CCC4)ccc3C2)cc2ccccc21 [Example 6, [6-(Azetidin-1-ylmethyl)-3,4-dihydro-2(1H)isoquinolin-2-yl](1-methyl-1H-indol-2-yl)methanone]	43 nM
CNCc1ccc2c(c1)CCN(C(=O)c1cc3ccccc3n1C)C2 [Example 5, [6-Methylaminomethyl-3,4-dihydro-2(1H)isoquinolin-2-yl](1-methyl-1H-indol-2-yl)methanone]	19 nM
CNCc1ccc2c(c1)CCN(C(=O)c1cc3cc(Cl)ccc3n1C)C2 [Example 8, [6-methylaminomethyl-3,4-dihydro-2(1H)isoquinolin-2-yl](5-chloro-1-methyl-1H-indol-2-yl)methanone]	25 nM

More lines, now with the values ahead:

IC50	SMILES
49 nM	CCN1CCc2cc(CNC(=O)c3cc4ccccc4n3C)ccc2C1 [Example 2, N-(2-ethyl-1,2,3,4-tetrahydroisoquinolin-6-ylmethyl)-1-methyl-1H-indole-2-carboxamide]
61 nM	Cn1c(C(=O)NCc2ccc3c(c2)CCNC3)cc2ccccc21 [Example 1, 1-Methyl-N-(1,2,3,4-tetrahydroisoquinolin-6-ylmethyl)-1H-indole-2-carboxamide]
45 nM	Cn1c(C(=O)NCc2ccc3c(c2)CCN(C2CCCC2)C3)cc2ccccc21 [Example 3, N-(2-cyclopentyl-1,2,3,4-tetrahydroisoquinolin-6-ylmethyl)-1-methyl-1H-indole-2-carboxamide]
